Experimental data from patent US10035790B2, “RORγ modulators” (BRISTOL-MYERS SQUIBB COMPANY, priority 2012, dated 2018).

Molecular target: T1, ligand binding domain of human RORγ (A262-S507) (Homo sapiens, UniProt P51449)
T1 construct: made in house; host or cells: E. coli
T1 sequence (P51449 262-507): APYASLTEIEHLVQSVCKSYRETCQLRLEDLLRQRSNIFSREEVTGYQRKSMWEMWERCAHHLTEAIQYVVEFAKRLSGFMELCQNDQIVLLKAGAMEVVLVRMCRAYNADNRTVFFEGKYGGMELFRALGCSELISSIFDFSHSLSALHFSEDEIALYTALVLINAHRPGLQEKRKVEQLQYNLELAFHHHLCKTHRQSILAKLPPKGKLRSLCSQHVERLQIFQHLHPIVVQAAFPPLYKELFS
Assay: General RORγ SPA binding assay (competition with [3H]25-hydroxycholesterol)
Conditions: RORγ SPA binding assay, inhibition of [3H]25-hydroxycholesterol binding; read-out: IC50
Procedure, shortened: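 Scintillation counts from copper His-tag SPA beads (4 mg/mL, 30 min) gave percent inhibition of radioligand binding, from which IC50 values are derived. The E. coli-expressed His-tagged domain (50 nM) is first exposed to compound for 15 min at room temperature in PBS containing 0.5% fatty acid free BSA.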

| SMILES | IC50 [nM] |
| --- | --- |
| O=C(NCc1ccc(Cl)c(Cl)c1)c1cncnc1C1CCN(C(=O)Cc2c(Cl)cccc2Cl)CC1 [Compound A65, N-(3,4-dichlorobenzyl)-4-(1-(2-(2,6-dichlorophenyl)acetyl)piperidin-4-yl)pyrimidine-5-carboxamide] | 69 |
| Cc1ncc(C(=O)NCc2cc(C(F)(F)F)ccn2)c(C2CCN(C(=O)Cc3c(F)cccc3F)CC2)n1 [Compound A66, 4-(1-(2-(2,6-difluorophenyl)acetyl)piperidin-4-yl)-2-methyl-N-((4-(trifluoromethyl)pyridin-2-yl)methyl)pyrimidine-5-carboxamide] | 72 |
| Cc1cc(C(F)(F)F)nc(CNC(=O)c2cnc(C)nc2C2CCN(C(=O)Cc3c(F)cccc3F)CC2)n1 [Compound A67, 4-(1-(2-(2,6-difluorophenyl)acetyl)piperidin-4-yl)-2-methyl-N-((4-methyl-6-(trifluoromethyl)pyrimidin-2-yl)methyl)pyrimidine-5-carboxamide] | 85 |
| O=C(NCc1ccc(Cl)c(Cl)c1)c1cncnc1C1CCN(C(=O)Cc2c(F)ccc(F)c2F)CC1 [Compound A68, N-(3,4-dichlorobenzyl)-4-(1-(2-(2,3,6-trifluorophenyl)acetyl)piperidin-4-yl)pyrimidine-5-carboxamide] | 95 |
| Cc1ncc(C(=O)NCc2ccccc2)c(C2CCN(C(=O)Cc3c(F)cccc3F)CC2)n1 [Compound A69, N-benzyl-4-(1-(2-(2,6-difluorophenyl)acetyl)piperidin-4-yl)-2-methylpyrimidine-5-carboxamide] | 144 |
| Cc1cc(CNC(=O)c2cnc(C)nc2C2CCN(C(=O)Cc3c(F)cccc3F)CC2)ccn1 [Compound A70, 4-(1-(2-(2,6-difluorophenyl)acetyl)piperidin-4-yl)-2-methyl-N-((2-methylpyridin-4-yl)methyl)pyrimidine-5-carboxamide] | 213 |
| Cc1ncc(C(=O)NCc2ccc(Cl)nc2)c(C2CCN(C(=O)Cc3c(F)cccc3F)CC2)n1 [Compound A71, N-((6-chloropyridin-3-yl)methyl)-4-(1-(2-(2,6-difluorophenyl)acetyl)piperidin-4-yl)-2-methylpyrimidine-5-carboxamide] | 242 |
| Cc1ncc(C(=O)NCc2cnc(Cl)s2)c(C2CCN(C(=O)Cc3c(F)cccc3F)CC2)n1 [Compound A72, N-((2-chlorothiazol-5-yl)methyl)-4-(1-(2-(2,6-difluorophenyl)acetyl)piperidin-4-yl)-2-methylpyrimidine-5-carboxamide] | 317 |
| Cc1cc(CNC(=O)c2cnc(C)nc2C2CCN(C(=O)Cc3c(F)cccc3F)CC2)cc(C)n1 [Compound A73, 4-(1-(2-(2,6-difluorophenyl)acetyl)piperidin-4-yl)-N-((2,6-dimethylpyridin-4-yl)methyl)-2-methylpyrimidine-5-carboxamide] | 426 |
| Cc1ncc(C(=O)NCc2ccc(C(F)(F)F)nc2)c(C2CCN(C(=O)Cc3c(F)cccc3F)CC2)n1 [Compound A74, 4-(1-(2-(2,6-difluorophenyl)acetyl)piperidin-4-yl)-2-methyl-N-((6-(trifluoromethyl)pyridin-3-yl)methyl)pyrimidine-5-carboxamide] | 619 |
| COC(=O)C(NC(=O)c1cnc(C)nc1C1CCN(C(=O)Cc2c(F)cccc2F)CC1)c1cccc(Cl)c1 (stereo not shown) [Compound A75, methyl 2-(3-chlorophenyl)-2-(4-(1-(2-(2,6-difluorophenyl)acetyl)piperidin-4-yl)-2-methylpyrimidine-5-carboxamido)acetate] | 750 |
| Cc1ncc(C(=O)NC(C)c2cccc(Cl)c2)c(C2CCN(C(=O)Cc3c(F)cccc3F)CC2)n1 (stereo not shown) [Compound A76, N-(1-(3-chlorophenyl)ethyl)-4-(1-(2-(2,6-difluorophenyl)acetyl)piperidin-4-yl)-2-methylpyrimidine-5-carboxamide] | 1120 |
| CCNC(=O)c1cc(CNC(=O)c2cnc(C)nc2C2CCN(C(=O)Cc3c(F)cccc3F)CC2)ccn1 [Compound A77, 4-(1-(2-(2,6-difluorophenyl)acetyl)piperidin-4-yl)-N-((2-(ethylcarbamoyl)pyridin-4-yl)methyl)-2-methylpyrimidine-5-carboxamide] | 1340 |
| Cc1ncc(C(=O)NCc2cc(C)n(C)n2)c(C2CCN(C(=O)Cc3c(F)cccc3F)CC2)n1 [Compound A78, 4-(1-(2-(2,6-difluorophenyl)acetyl)piperidin-4-yl)-N-((1,5-dimethyl-1H-pyrazol-3-yl)methyl)-2-methylpyrimidine-5-carboxamide] | 1790 |
| Cc1cnc(CNC(=O)c2cnc(C)nc2C2CCN(C(=O)Cc3c(F)cccc3F)CC2)cn1 [Compound A79, 4-(1-(2-(2,6-difluorophenyl)acetyl)piperidin-4-yl)-2-methyl-N-((5-methylpyrazin-2-yl)methyl) pyrimidine-5-carboxamide] | 5260 |
| Cc1cc(C)cc(CNC(=O)c2c(C(C)C)nc(C)nc2C2CCN(C(=O)Cc3c(F)cccc3F)CC2)c1 [Compound A84, 4-(1-(2-(2,6-difluorophenyl)acetyl)piperidin-4-yl)-N-(3,5-dimethylbenzyl)-6-isopropyl-2-methylpyrimidine-5-carboxamide] | 1650 |

Now those with a lower IC50, led by results:

| IC50 [nM] | SMILES |
| --- | --- |
| 24.3 | COc1cccc(CNC(=O)c2cnc(C)nc2C2CCN(C(=O)Cc3c(F)cccc3F)CC2)c1 [Compound A58, 4-(1-(2-(2,6-difluorophenyl)acetyl)piperidin-4-yl)-N-(3-methoxybenzyl)-2-methylpyrimidine-5-carboxamide] |
| 25.5 | Cc1ncc(C(=O)NCc2ccc(Cl)cc2C)c(C2CCN(C(=O)Cc3c(F)cccc3F)CC2)n1 [Compound A59, N-(4-chloro-2-methylbenzyl)-4-(1-(2-(2,6-difluorophenyl)acetyl)piperidin-4-yl)-2-methylpyrimidine-5-carboxamide] |
| 35 | Cc1cccc(CNC(=O)c2cnc(C)nc2C2CCN(C(=O)Cc3c(F)cccc3F)CC2)c1 [Compound A60, 4-(1-(2-(2,6-difluorophenyl)acetyl)piperidin-4-yl)-2-methyl-N-(3-methylbenzyl)pyrimidine-5-carboxamide] |
| 38.2 | Cc1nc(C)c(C(=O)NCc2ccnc(C(F)(F)F)c2)c(C2CCN(C(=O)Cc3c(F)cccc3F)CC2)n1 [Compound A61, 4-(1-(2-(2,6-difluorophenyl)acetyl)piperidin-4-yl)-2,6-dimethyl-N-((2-(trifluoromethyl)pyridin-4-yl)methyl)pyrimidine-5-carboxamide] |
| 43.4 | Cc1ncc(C(=O)NCc2ccc(Cl)cc2)c(C2CCN(C(=O)Cc3c(F)cccc3F)CC2)n1 [Compound A62, N-(4-chlorobenzyl)-4-(1-(2-(2,6-difluorophenyl)acetyl)piperidin-4-yl)-2-methylpyrimidine-5-carboxamide] |
| 63 | Cc1ncc(C(=O)NCc2cccc(Cl)c2C)c(C2CCN(C(=O)Cc3c(F)cccc3F)CC2)n1 [Compound A63, N-(3-chloro-2-methylbenzyl)-4-(1-(2-(2,6-difluorophenyl)acetyl)piperidin-4-yl)-2-methylpyrimidine-5-carboxamide] |
| 64 | CCc1ncc(C(=O)NCc2cc(C)cc(C)c2)c(C2CCN(C(=O)Cc3c(F)cccc3F)CC2)n1 [Compound A64, 4-(1-(2-(2,6-difluorophenyl)acetyl)piperidin-4-yl)-N-(3,5-dimethylbenzyl)-2-ethylpyrimidine-5-carboxamide] |
| 9.8 | Cc1cc(C)cc(CNC(=O)c2c(C)nc(C)nc2C2CCN(C(=O)Cc3c(F)cccc3F)CC2)c1 [Compound A80, 4-(1-(2-(2,6-difluorophenyl)acetyl)piperidin-4-yl)-N-(3,5-dimethylbenzyl)-2,6-dimethylpyrimidine-5-carboxamide] |
| 5.2 | Cc1nc(C)c(C(=O)NCc2cccc(Cl)c2)c(C2CCN(C(=O)Cc3c(F)cccc3F)CC2)n1 [Compound A81] |
| 6.2 | Cc1nc(C)c(C(=O)NCc2cccc(C(F)(F)F)n2)c(C2CCN(C(=O)Cc3c(F)cccc3F)CC2)n1 [Compound A82, 4-(1-(2-(2,6-difluorophenyl)acetyl)piperidin-4-yl)-2,6-dimethyl-N-((6-(trifluoromethyl)pyridin-2-yl)methyl)pyrimidine-5-carboxamide] |
| 45.8 | Cc1nc(C)c(C(=O)NCc2ccnc(C#N)c2)c(C2CCN(C(=O)Cc3c(F)cccc3F)CC2)n1 [Compound A83, N-((2-cyanopyridin-4-yl)methyl)-4-(1-(2-(2,6-difluorophenyl)acetyl)piperidin-4-yl)-2,6-dimethylpyrimidine-5-carboxamide] |
| 43.8 | CSc1ncc(C(=O)NCc2ccc(Cl)c(Cl)c2)c(C2CCN(C(=O)Cc3c(F)cccc3F)CC2)n1 [Compound A85, N-(3,4-dichlorobenzyl)-4-(1-(2-(2,6-difluorophenyl)acetyl)piperidin-4-yl)-2-(methylthio)pyrimidine-5-carboxamide] |
| 7 | COc1ncc(C(=O)NCc2ccc(Cl)c(Cl)c2)c(C2CCN(C(=O)Cc3c(F)cccc3F)CC2)n1 [Compound A86, N-(3,4-dichlorobenzyl)-4-(1-(2-(2,6-difluorophenyl)acetyl)piperidin-4-yl)-2-methoxypyrimidine-5-carboxamide] |
| 1.7 | O=C(NCc1cccc(Cl)c1)c1cnc(NCCO)nc1C1CCN(C(=O)Cc2c(F)cccc2F)CC1 [Compound A87, N-(3-chlorobenzyl)-4-(1-(2-(2,6-difluorophenyl)acetyl)piperidin-4-yl)-2-((2-hydroxyethyl)amino)pyrimidine-5-carboxamide] |
| 5.4 | CN(C)c1ncc(C(=O)NCc2cccc(Cl)c2)c(C2CCN(C(=O)Cc3c(F)cccc3F)CC2)n1 [Compound A88, N-(3-chlorobenzl)-4-(1-(2-(2,6-difluorophenyl)acetyl)piperidin-4-yl)-2-(dimethylamino)pyrimidine-5-carboxamide] |
